Laboratory results: patent US10703698B2, “Compounds which activate estrogen receptors and compositions and methods of using the same” (The Board of Trustees of the University of Illinois, priority 2016, dated 2020)
Entries after “also recorded” stand apart in the source; their conditions may differ.

How the values were obtained:
[1] = test system: ovariectomized C57BL/6 mice; assay: stroke model, transient middle cerebral artery occlusion (tMCAo)
[2] = molecular target: T1, ERα and RAPTOR (Homo sapiens, UniProt P03372); assay: proximity ligation assay in MCF-7 cells; format: cell-based; conditions: 10 nM E2 or 1 μM PaPE-1, 15 min
T1 construct: endogenous in cells; host or cells: MCF-7
T1 sequence (P03372 1-595): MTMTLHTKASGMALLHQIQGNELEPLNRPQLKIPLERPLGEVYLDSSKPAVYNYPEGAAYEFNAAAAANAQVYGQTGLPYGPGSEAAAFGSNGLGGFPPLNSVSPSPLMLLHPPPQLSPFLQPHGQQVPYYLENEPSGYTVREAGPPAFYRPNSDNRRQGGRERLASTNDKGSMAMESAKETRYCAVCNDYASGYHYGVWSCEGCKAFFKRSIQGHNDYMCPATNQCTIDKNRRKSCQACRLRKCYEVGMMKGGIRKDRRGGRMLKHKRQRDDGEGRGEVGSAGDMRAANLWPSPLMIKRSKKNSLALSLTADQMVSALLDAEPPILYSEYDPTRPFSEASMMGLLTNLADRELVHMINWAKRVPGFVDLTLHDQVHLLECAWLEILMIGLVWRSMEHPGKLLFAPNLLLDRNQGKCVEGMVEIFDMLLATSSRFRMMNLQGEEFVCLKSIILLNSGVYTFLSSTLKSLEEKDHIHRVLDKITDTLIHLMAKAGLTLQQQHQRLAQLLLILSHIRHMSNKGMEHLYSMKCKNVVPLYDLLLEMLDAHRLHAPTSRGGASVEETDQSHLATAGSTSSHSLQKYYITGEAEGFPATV
Protocol: Next day, the proximity ligation assay (PLA) was performed using the Duolink In Situ kit (Olink Bioscience) according to the manufacturer's instructions, as described in Zhao et. al., Endocrinology, 154, 1349-1360, 2013. Briefly, overnight incubation with primary antibodies was followed by hybridization with two PLA probes at 37° C. for 1 h, and then by ligation for 15 min and amplification for 90 min at 37° C. A coverslip was mounted on each slide and image acquisition and analysis conducted. Samples were imaged using a 63×/1.4 Oil DIC M27 objective in a Zeiss LSM 700 or 710 laser scanning confocal microscope. Images were obtained in a sequential manner using a 488 Ar (10 mW) laser line for PLA signal. The individual channels for DAPI and PLA signal were obtained using a sequential scanning mode to prevent bleed-through of the excitation signal. Laser power, gain and offset were kept constant across the samples and scanned in a high resolution format of 512×512 or 1024×1024 pixels with 2/4 frames averaging. Further quantification of the images used Fiji software (http://fiji.sc/wiki/index.php/Fiji). Briefly, images were converted to 8 bit for segmentation for each channel, and images were background subtracted using a rolling-ball method, with a pixel size of 100 and segmented using the DAPI channel.

[3] = test system: MCF-7 cells; assay: RNA-Seq of MCF-7 cells treated with OA with and without PaPE-1; format: cell-based, human
Protocol: FIG. 38. Identification of genes induced by OA and PaPE-1's effect on the gene regulation. (A) RNA-Seq analysis of gene expression changes induced by OA and OA+PaPE1. Heat map of the genes with significant changed expression. MCF-7 cells were treated with Veh or 100 nM OA with and without 1 μM PaPE-1 for 24 h. RNA was isolated and RNA-Seq was performed using 2 samples from each treatment group. Differentially regulated genes were determined with p<0.05 and expression fold change >2. (B) Clusters from A. regulated by OA and reversed by PaPE-1. The average gene expression level of the cluster1 (C1) and 2 (C2) identified as PaPE-1 regulated high-fat genes. In C1, there are 425 genes whose expression were found stimulated in OA but not in the OA+PaPE-1 treatment. In C2, there are 646 genes whose expression were found suppressed in the OA but restored by OA+PaPE-1 treatment. (C) Venn diagram analysis. […] (D) Examples of OA-regulated genes. Some of the top functions of the involved genes are presented.

[4] = test system: mTOR and MAPK signaling; assay: Western blot of signaling pathway activation in MCF-7 cells; format: cell-based, human
From the text: Western blot analysis used specific antibodies for ERα (HC-20, Santa Cruz); ERK2 (D-2, Santa Cruz); and pS^6, pS6K, pmTOR, pRAPTOR, pRICTOR, pMAPK (Cell Signaling). Coimmunoprecipitation assays used antibodies for SRC3 (Santa Cruz, C-20) and ERα (Santa Cruz, F10).

[5] = test system: ovariectomized C57BL/6 mice; conditions: mouse, in vivo
[6] = test system: MCF-7 cells; assay: Seahorse cell metabolic phenotype assays in MCF-7 cells; format: cell-based, human; conditions: 24 hours; listed as PaPE-1
[7] = pharmacokinetics after SC injection in ovariectomized mice; format: in vivo; conditions: female, C57BL/6, mouse, serum, 100 ug, subcutaneous injection
Protocol: For short-term studies, ovariectomized C57BL/6 mice were injected SC with 100 μg of PaPE-1 in 100 μl DMSO. Three mice were sacrificed at each time point, and 400 μl of blood was obtained from the abdominal aorta. Samples were centrifuged at 2000 g for 10 min, and serum was collected. A 50 μl portion of each sample was submitted to the Metabolomics Center at the University of Illinois for analysis. For longer-term studies, ovariectomized C57BL/6 mice were implanted SC with a pellet fabricated with 8 mg PaPE-1 and 12 mg cholesterol. Blood samples (30 μl) were collected by tail snipping every week until the third week of treatment. Samples were centrifuged at 2000 g for 10 min and serum was collected. Serum (10 μl) was mixed with 40 μl of PBS and submitted to the Metabolomics Center for analysis. For analysis, a mass standard of PaPE-1 (labeled with three deuterium atoms) was added to each sample before analysis by liquid chromatography-mass spectrometry using the 5500 QTrap with Agilent 1200 HPLC.

[8] = test system: MCF-7 cells; assay: MCF-7 cell proliferation, WST-1 assay; format: cell-based, human; conditions: 6 days
Protocol: Cells were seeded at 1000 cells/well in 96-well plates.

[9] = test system: LRRC54 gene; assay: LRRC54 (non-genomic gene) mRNA expression, qPCR; conditions: for LRRC54 (non-genomic gene) mRNA expression, in words: MCF-7 cells, 1 μM PaPE or 10 nM E2 for 4 h where stated, versus vehicle, E2 or compound 2
[10] = test system: eNOS; assay: eNOS activation in primary endothelial cells (14C-L-arginine to 14C-L-citrulline); format: cell-based, bovine; conditions: 15 min; 10 nM ligand (FIG. 9E)

For Cc1cc(-c2ccc3c(c2)CCC3O)cc(C)c1O (racemic) [Compound 2, 5-(4-hydroxy-3,5-dimethylphenyl)-2,3-dihydro-1H-inden-1-ol], the “severity of CNS injury on MRI” value ([1]; 3 and 7 days) was “decreased compared with control treatment”, the infarct volumes ([1]; 3d and 7d post-tMCAo, compared with vehicle) was “significantly reduced infarct volumes” and the “degree of swelling associated with the injury” value ([1]; 3 days post-stroke) was “attenuated”. The “reduction of leukocytes infiltrated in the brain” value ([1]; 3 days post-stroke) was 93%, the “rotorod functional recovery, of baseline” value ([1]; 6d post-tMCAo) was 85% and the “rotorod functional recovery, of baseline” value ([1]; 13d post-tMCAo) was 82%. The “rotorod function post-stroke, in words” value ([1]; mouse, in vivo) was “improved function post-stroke”, the “interaction of ERα with RAPTOR” value [2] was “to a greater extent; also recorded: induces interaction between ERα and Raptor” and the “cluster C1: genes stimulated in OA but not in OA+PaPE-1” value [3] was 425 genes. For the same molecule, the “cluster C2: genes suppressed in OA but restored by OA+PaPE-1” value [3] was 646 genes, the “OA-downregulated genes whose expression was restored by PaPE-1” value ([3]; 1 μM PaPE-1) was “about 60%” and the “OA-upregulated genes whose activation was blocked by PaPE-1” value ([3]; 1 μM PaPE-1) was 80%. For the same molecule, the “Serl 18 phosphorylation of ERα” value [4] was “did not induce any detectable”, the “activation of mTOR, MAPK (and AKT) signaling” value ([4]; listed as PaPE-1) was “very efficient in activating mTOR and MAPK signaling; also recorded: selectively activated mTOR and MAPK signaling” and the uterine wet weight [5] was “no effect”. For the same molecule, the “OA-induced glycolytic and aerobic respiration with PaPE-1” value [6] was “reversed by PaPE-1 treatment; also recorded: normalized by adding PaPE-1”, the half-life [7] was ~1 h and the “proliferation of MCF-7 cells” value [8] was “did not stimulate proliferation”. For the same molecule, the “LRRC54 activation, fold higher level than E2” value ([9]; FIG. 14) was 1.9 fold, the “LRRC54 (non-genomic gene) mRNA expression, in words” value [9] was “equivalent activities” and the “LRRC54 (non-genomic gene) mRNA expression, in words” value ([9]; listed as PaPE-1) was “LRRC54 stimulation”. For the same molecule, the “eNOS / NOS activity” value [10] was “comparable response”.
